Results reported in patent US5401772A, “Heteroacetic acid derivatives” (Ciba-Geigy Corporation, priority 1993, dated 1995).

Tests used:
Format in all cases: in vivo
[1] = system: serum cholesterol; assay: Cholesterol lowering activity in the rat (high cholesterol diet); details: po, 168 h, p.o., 7 consecutive days, read-out: daily dose that significantly lowers serum cholesterol
Protocol: Cholesterol lowering activity is determined in the rat as follows:
(§1) Male Sprague-Dawley rats (230-250 g) (Taconic Farms) are maintained ad libium on water and a high cholesterol diet (1.5% cholesterol and 0.5% cholic acid) for two weeks prior to and during the 7-day treatment period. Groups of animals are treated orally by gavage with the vehicle alone or with test compound for 7 consecutive days. After the host dose, animals are fasted for 18 hours and blood is collected. Blood samples are centrifuged at 2500 rpm for 10 minutes to prepare plasma for total cholesterol determination as well as LDL and HDL cholesterol concentrations. HDL values are determined after LDL/VLDL precipitation (Warnick and Albers, 1978). All samples are analyzed enzymatically for cholesterol with a diagnostic reagent kit (Sigma Chemical Co., St. Louis, MO). The analysis is performed on a Bio-Mek automated work station. LDL/VLDL fractions are precipitated in the following manner: 0.35 ml of plasma is aliquoted into Eppendorf tubes to which 12 μl of 2M manganese chloride, 11.2 μl of sodium heparin (Porcine Intestinal, 5000 units/ml), and 8.3 μl of normal saline are added. The samples are vortexed and are placed on ice for 15 minutes, then centrifuged at 4° C. for 10 minutes at 1300 rpm and the supernatant is enzymatically analyzed for cholesterol. […]

[2] = system: serum cholesterol; assay: Cholesterol-lowering activity in normocholesterolemic dogs; details: Canis lupus familiaris, po, 120 h, dog, p.o., 5 days, regular chow, read-out: daily dose that significantly lowers serum cholesterol
Protocol: as §1, with “LDL/VLDL fractions are precipitated in the following manner: 0.35 ml of plasma is aliquoted into Eppendorf tubes to which 12 μl of 2M manganese chloride, 11.2 μl of sodium heparin (Porcine Intestinal, 5000 units/ml), and 8.3 μl of normal saline are added.” left out
(§2) Cholesterol-lowering activity can also be evaluated in normocholesterolemic dogs fed regular chow following the procedure described above, by administration of test compound orally for 5 days; also in normolipomic cynomolgus monkeys.

[3] = system: serum cholesterol; assay: Cholesterol-lowering activity in normolipomic cynomolgus monkeys; details: Macaca fascicularis, po, monkey, p.o., read-out: daily dose that significantly lowers serum cholesterol
Protocol: as §1, with “LDL/VLDL fractions are precipitated in the following manner: 0.35 ml of plasma is aliquoted into Eppendorf tubes to which 12 μl of 2M manganese chloride, 11.2 μl of sodium heparin (Porcine Intestinal, 5000 units/ml), and 8.3 μl of normal saline are added.” left out
as §2

Row | Structure (SMILES) | minimal effective dose [1] | minimal effective dose [2] | minimal effective dose [3]
1 | Cc1cc(NC(=O)C(=O)O)cc(C)c1Oc1ccc(O)c(C(C)C)c1 [N-[3,5-dimethyl-4-(4'-hydroxy-3'-isopropylphenoxy)-phenyl]oxamic acid] | ~0.02 mg/kg/day | ~0.03 mg/kg/day | –
2 | CCOC(=O)C(=O)Nc1cc(C)c(Oc2ccc(O)c(C(O)c3ccc(F)cc3)c2)c(C)c1 (centres unmarked) [ethyl N-[4-[3'-[(4-fluorophenyl) hydroxymethyl]-4'-hydroxyphenoxy]-3,5-dimethylphenyl]oxamate] | ~0.005 mg/kg/day | ~0.01 mg/kg/day | ~0.001 mg/kg/day
